Source: PMC6412381, “Covalently Linking Oligomerization-Impaired GlpF Protomers Does Not Completely Re-establish Wild-Type Channel Activity” (International Journal of Molecular Sciences, 2019)

Tests used:
GlpF WT (non-fused) = target: T1, GlpF WT (non-fused) (Escherichia coli, UniProt P0AER0); assay: stopped-flow light scattering of E. coli SK46 cells, re-swelling by ribitol influx; format: cell-based; details: LB medium, mixed with equal volume of 600 mM ribitol, 25 °C, 500 µM IPTG induction; transport through channel
T1 construct: expressed from pMalp2-based plasmid in E. coli SK46 lacking GlpF and AqpZ
T1 sequence (P0AER0 1-281): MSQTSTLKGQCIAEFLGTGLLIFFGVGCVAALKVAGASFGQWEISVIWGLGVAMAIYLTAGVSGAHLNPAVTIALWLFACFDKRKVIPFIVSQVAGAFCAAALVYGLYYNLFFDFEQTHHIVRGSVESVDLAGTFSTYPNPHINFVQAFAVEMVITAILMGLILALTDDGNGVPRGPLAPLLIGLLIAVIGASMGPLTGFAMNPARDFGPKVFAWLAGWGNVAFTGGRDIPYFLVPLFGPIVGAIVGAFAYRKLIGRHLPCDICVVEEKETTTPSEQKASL

[1] = target: T2, WT4 (genetically fused GlpF tetramer) (Escherichia coli, UniProt P0AER0); assay: as above; format: cell-based; details: LB medium, mixed with equal volume of 600 mM ribitol, 25 °C, 500 µM IPTG induction; transport through channel
T2 construct: four full-length GlpF copies fused in one polypeptide, N-terminal extension MGSGLE, Val-Glu linkers between monomers, calculated 120 kDa; expressed in E. coli SK46 lacking GlpF and AqpZ
T2 sequence (P0AER0 1-281): T1 sequence (P0AER0 1-281)

How did the “k (flux rate constant)” value (GlpF WT (non-fused)) turn out when `OC[C@@H](O)[C@@H](O)[C@@H](O)CO` [ribitol] was run?
The value was “the ribitol conductance of the fused GlpF tetramer was slightly decreased compared to the non-fused”.

And the “k (flux rate constant)” value [1]?
The value was “yet the WT4 protein was still highly active”.
